The record followed here is EPA's ToxValDB 9.5.

The subject of one data set is Oryctolagus sp. The following applies: for NOAEL: gavage.
A further data set relates to Mus musculus. The following applies: for LC50 / LD50: acute; for LD50: injection.
In data set [1] the test system is Rattus norvegicus. As to conditions: for LD50 / LC50: acute.
Data set [2] has as its system Rattus norvegicus. As to conditions: injection, subcutaneous.
Data set [3] relates to Rattus norvegicus. The following applies: chronic; duration: 2 years; oral; diet; M/F; neurotoxicity.
For data set [4], the system named is Rattus norvegicus. As to conditions: subchronic; oral; gavage; M; Sprague-Dawley; Food Consumption: increase + Urinalysis: Ketone body decrease + Blood Chemistry: T-Cho increase, PL increase, TP increase + Absolute Organ ….
The mark [5] stands for this setting: chronic, duration: 104 weeks, oral, diet, CDA.
The mark [6] stands for this setting: subchronic, duration: 90 days, oral, gavage, CDA Sprague-Dawley.

Converted amounts (≈) assume the structure as drawn. “And” between values parts separate entries of the source, which are not always exact repeats. Equal entries are not always repeated. A value given as a limit tells only on which side of the number the result lay.

As to `C=C(C)C(=O)OCCN(C)C` [2-(Dimethylamino)ethyl methacrylate], the LD50 is over 3000 mg/kg in the data set with Oryctolagus sp. (acute, dermal); 25 mg/kg in the data set with Mus musculus (intraperitoneal); over 2000 mg/kg in the data set with Rattus norvegicus [1] (dermal, Sprague-Dawley); over 2000 mg/kg in the data set with Rattus norvegicus [1] (oral, gavage, Crj:CD). For the same compound, the LC50 in the data set with Mus musculus (inhalation) turned out to be 1.8 µg/mL (≈ 11.4 µM); in the data set on Rattus norvegicus [1] (inhalation) it was 0.62 µg/mL (≈ 3.94 µM). Moreover, the no observed adverse effect level (NOAEL) in the data set on Rattus norvegicus [1] (reproduction developmental, duration: 41 days, oral, gavage, Crj:CD, generation: F0) was determined as 200 mg/kg-day; in the data set on Rattus norvegicus [1] (short-term, duration: 3 weeks, inhalation), 643 mg/m3; in the data set on Rattus norvegicus [1] (subchronic, duration: 41 days, oral, gavage, Crj:CD) it was 200 mg/kg-day.

With `Cc1cc(C)cc(O)c1` [3,5-Dimethylphenol], the LC50 was determined as 1310 mg/kg with Oryctolagus sp. (acute, oral); 477 mg/kg in the data set on Mus musculus (oral); 608 mg/kg in the data set on Rattus norvegicus [1] (oral).

Take `CC(C)(C)c1cc(C(C)(C)c2ccc(O)c(C(C)(C)C)c2)ccc1O` [4,4'-Propane-2,2-diylbis(2-tert-butylphenol)]: the LD50 in the data set with Mus musculus (Intraperitoneal) and in the data set on Mus musculus (intraperitoneal) was 40 mg/kg in each case.

Consider `CCC(C)(C)c1ccc(O)cc1` [4-(2-Methylbutan-2-yl)phenol], for which the LEL in the data set with Rattus norvegicus [2] (uterotrophic, duration: 3 days, Active) was 200 mg/kg-day and 202 mg/kg-day.

`CC(C)(C)C1CCC(O)CC1` (stereo not drawn) [4-tert-Butylcyclohexanol]: the LD50 in the data set on Oryctolagus sp. (acute, dermal) was over 5000 mg/kg; in the data set on Mus musculus (Intraperitoneal, CF1), ≥ 50 mg/kg and ≤ 100 mg/kg; in the data set with Rattus norvegicus [1] (oral), 4200 mg/kg. The same compound showed an LOAEL with Rattus norvegicus [1] (short-term, duration: 28 days, oral, gavage, Wistar) of 150 mg/kg-day.

For `CC1(C)NC(=O)NC1=O` [5,5-Dimethylhydantoin], the LD50 in the data set with Oryctolagus sp. (acute, dermal, New Zealand) is over 20000 mg/kg; in the data set on Oryctolagus sp. (acute, dermal, occlusive, New Zealand), over 3000 mg/kg; in the data set on Rattus norvegicus [1] (oral, gavage, Sprague-Dawley), over 5000 mg/kg. For the same compound, the NOAEL in the data set with Oryctolagus sp. (developmental, duration: 13 days, oral, New Zealand) is 100 mg/kg-day; with Oryctolagus sp. (reproduction developmental, duration: 13 days, oral, F, New Zealand), 500 mg/kg-day; with Mus musculus (short-term, duration: 28 days, oral, diet, F, CD1), 50000 ppm; in the data set with Rattus norvegicus [1] (chronic, duration: 24 months, oral, diet, Crl:CDABR), over 1000 mg/kg-day; in the data set with Rattus norvegicus [1] (setting [5]) it was 1000 mg/kg-day; with Rattus norvegicus [1] (developmental, duration: 14 days, oral, gavage, Sprague-Dawley COBS CD), at most 2000 mg/kg-day. Also, the NOAEL in the data set on Rattus norvegicus [1] (developmental, oral, gavage, Crl:CD(SD) BR) is 250 mg/kg-day; with Rattus norvegicus [1] (reproduction developmental, duration: 10 weeks, oral, diet, CD, generation: F0), 20000 ppm; in the data set with Rattus norvegicus [1] (reproduction developmental, duration: 10 weeks, oral, diet, CD, generation: F1), 20000 ppm; in the data set on Rattus norvegicus [1] (reproduction developmental, oral, gavage, Crl:CD(SD) BR, generation: F0) it was 1000 mg/kg-day; in the data set on Rattus norvegicus [1] (reproduction developmental, oral, gavage, F, Crl:CD(SD) BR) it was 1000 mg/kg-day; in the data set on Rattus norvegicus [1] (subchronic, duration: 13 weeks, oral, gavage, Sprague-Dawley (CRl: CDBR)) it was 1000 mg/kg-day. The compound also gave a no observed adverse effect level (NOAEL) with Rattus norvegicus [1] (setting [6]) of 2000 mg/kg-day. Moreover, the LOAEL in the data set on Mus musculus (subchronic, duration: 13 weeks, oral, diet, CD1) is 9850 mg/kg-day; in the data set on Rattus norvegicus [1] (setting [5]), over 1000 mg/kg-day; in the data set on Rattus norvegicus [1] (setting [6]), 5000 mg/kg-day. In addition, in the data set with Rattus norvegicus [1] (inhalation), the LC50 is over 14.7 µg/mL.

In the case of `C=C[C@@]12CCc3cc(O)ccc3[C@H]1CC[C@@]1(C)[C@H]2CC[C@@H]1O` [8beta-Vinylestra-1,3,5(10)-triene-3,17beta-ol], the LOEL in the data set on Rattus norvegicus [2] (Hershberger, duration: 12 days, Wistar, active + Androgenic + androgenic) was 100 mg/kg-day.

`CN(C)C(=S)SSC(=S)N(C)C` [Bis(dimethylaminothiocarbonyl) disulfide]: the LD50 in the data set on Oryctolagus sp. (acute, dermal) was at least 2000 mg/kg; in the data set on Oryctolagus sp. (acute, dermal, New Zealand), over 7940 mg/kg; in the data set on Rattus norvegicus [1] (dermal), over 5000 mg/kg; in the data set on Rattus norvegicus [1] (oral, gavage, Sprague-Dawley), 1080 mg/kg. The NOAEL was 5 mg/kg-day in the data set on Oryctolagus sp. (reproduction developmental, duration: 14 days, oral, F, New Zealand); 5 mg/kg-day with Oryctolagus sp. (reproduction developmental, duration: 14 days, oral, New Zealand, generation: F1); 7.5 mg/kg-day with Rattus norvegicus [1] (reproduction developmental, duration: 10 days, oral, gavage, Crl:CD1, generation: F1); over 30 mg/kg-day with Rattus norvegicus [1] (reproduction developmental, duration: 10 days, oral, gavage, F); 7.5 mg/kg-day in the data set on Rattus norvegicus [1] (reproduction developmental, duration: 10 days, oral, gavage, F, Crl:CD1); 7.5 mg/kg-day in the data set with Rattus norvegicus [1] (reproduction developmental, duration: 10 days, oral, gavage, generation: F1). In addition, the no-observed-adverse-effect level (NOAEL) in the data set with Rattus norvegicus [1] (reproduction developmental, duration: 81 days, oral, diet, generation: F1) is 60 ppm and 180 ppm; in the data set on Rattus norvegicus [1] (subchronic, duration: 90 days, oral, diet, F), 2.5 mg/kg-day; in the data set with Rattus norvegicus [1] (subchronic, duration: 90 days, oral, diet, M) it was 2.5 mg/kg-day. In addition, in the data set with Rattus norvegicus [1] (inhalation, particle), the LC50 is over 6.22 µg/mL. Besides, in the data set on Rattus norvegicus [3], the LEL is 15 mg/kg-day. The compound further registered an NOEL in the data set on Rattus norvegicus [3] of 5 mg/kg-day.

Regarding `CC(C)OC(C)C` [Isopropyl ether], the NOEL with Rattus norvegicus [4] was under 100 mg/kg-day. In addition, the 50% lethal dose (LD50) in the data set on Oryctolagus sp. (acute, dermal, non-occlusive, New Zealand) was over 2000 mg/kg; in the data set on Oryctolagus sp. (acute, oral, New Zealand), 4500 mg/kg. Further, the NOAEL with Rattus norvegicus [1] (reproduction developmental, duration: 13 weeks, inhalation, Sprague-Dawley) amounted to 2010 mg/m3; with Rattus norvegicus [1] (reproduction developmental, duration: 10 days, inhalation, F, Sprague-Dawley) it was 1800 mg/m3.

Turning to `CN=C=O` [Methyl isocyanate], the LOAEL in the data set with Mus musculus (developmental, duration: 6 hours, inhalation, Swiss) is under 2.33 mg/m3; with Rattus norvegicus [1] (developmental, duration: 0.5 hours, inhalation), under 0.495 mg/m3; in the data set with Rattus norvegicus [1] (reproduction developmental, duration: 0.5 hours, inhalation, F), under 0.495 mg/m3. For the same compound, the NOAEL is over 7 mg/m3 with Mus musculus (reproduction developmental, duration: 6 hours, inhalation, F, Swiss); over 7 mg/m3 in the data set with Mus musculus (reproduction developmental, duration: 6 hours, inhalation, Swiss, generation: F0); over 3140 mg/m3 with Rattus norvegicus [1] (reproduction developmental, duration: 8 minutes, inhalation, whole body, Wistar, generation: F0); over 0.824 mg/m3 in the data set with Rattus norvegicus [1] (reproduction developmental, duration: 0.5 hours, inhalation, generation: F0).

The LD50 is the dose expected to kill half of the subjects tested. A lower LD50 goes with greater toxicity. By NOAEL is commonly meant the highest tested level that showed no adverse finding. The term LOAEL denotes the lowest dose or exposure tested at which an adverse effect was seen.
